Patent US8030354B2, “Substituted biphenyl GPR40 modulators” (Amgen Inc., priority 2007, dated 2011)

Experiments:
GPR40 [1] = molecular target: T1, GPR40 (Homo sapiens, UniProt O14842); experiment: Cell-based aequorin assay (CHO cells stably expressing GPR40 and aequorin); parameters: expressed in transfected cells; host or cells: CHO cells stably transfected with GPR40 and aequorin; conditions: activation of human GPR40, CHO cells, 0.01% HSA
Outline: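 CHO cells stably co-expressing GPR40 and aequorin, loaded with coelenterazine (1 ug/mL, 2 h, room temperature) in H/HBSS with 20 mM Hepes and 0.01% fatty acid-free HSA. Serially diluted compounds added; luminescence recorded over 20 s. EC50 from dose-response of maximum relative light units.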

GPR40 [2] = molecular target: T1, GPR40; experiment: Inositol phosphate accumulation assay (A9_GPR40 cells); type: cell-based; parameters: expressed in transfected cells; host or cells: CHO cells stably transfected with GPR40 and aequorin; conditions: inositol phosphate assay, A9_GPR40 cells, 1 hour; read-out: IP3 EC50
Outline: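 [^3H] inositol phosphate accumulation was measured by SPA after 1 h compound exposure at 37° C in HBSS/10 mM LiCl containing HSA, ending with a 20 mM formic acid quench. The GPR40-transfected A9 cells had first been labelled overnight (16 h) with 1 μCi/mL ^3H-inositol.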

T1 sequence (O14842 whole entry): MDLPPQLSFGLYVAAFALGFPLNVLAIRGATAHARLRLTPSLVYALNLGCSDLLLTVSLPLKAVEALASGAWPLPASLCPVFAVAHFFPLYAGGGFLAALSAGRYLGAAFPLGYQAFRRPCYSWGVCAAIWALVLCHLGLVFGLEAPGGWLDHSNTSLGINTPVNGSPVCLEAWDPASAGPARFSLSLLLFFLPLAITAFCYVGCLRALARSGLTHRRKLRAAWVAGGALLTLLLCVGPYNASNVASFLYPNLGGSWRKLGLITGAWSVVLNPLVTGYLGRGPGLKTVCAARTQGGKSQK

SMILES	EC50 (GPR40 [1]) [µM]	EC50 (GPR40 [2]) [µM]
COc1ccc(F)c(-c2ccc(COc3cccc([C@@H](CC(=O)O)C4CCC4)c3)cc2[C@@H]2CCCC2(C)C)c1 (single isomer, unassigned) [Example 79.4]	0.01 to 0.1	< 0.01
CCC[C@H](CC(=O)O)c1cccc(OCc2ccc(-c3cc(OC)ccc3F)c([C@H]3CCCC3(C)C)c2)c1 (single isomer, unassigned) [Example 80.4]	0.1 to 1	< 0.01
CCC(CC(=O)O)c1cccc(NCc2ccc(-c3cc(OC)ccc3F)c(C3=CCCC3(C)C)c2)c1 (single isomer, unassigned) [Example 81, (3R)-3-(3-(((2-(5,5-Dimethyl-1-cyclopenten-1-yl)-2′-fluoro-5′-(methyloxy)-1,1′-biphenyl-4-yl)methyl)amino)phenyl)pentanoic acid or (3S)-3-(3-(((2-(5,5-dimethyl-1-cyclopenten-1-yl)-2′-fluoro-5′-(methyloxy)-1,1′-biphenyl-4-yl)methyl)amino)phenyl)pentanoic acid]	0.1 to 1	> 10
CC[C@H](CC(=O)O)c1cccc(SCc2ccc(-c3cc(OC)ccc3F)c([C@H]3CCCC3(C)C)c2)c1 (single isomer, unassigned) [Example 82]	0.1 to 1	1 to 10
CC1(C)CCC[C@@H]1c1cc(COc2cccc([C@@H](CC(=O)O)C3CC3)c2F)ccc1-c1cc(C(F)F)ccc1F (single isomer, unassigned) [Example 83.3]	0.1 to 1	0.01 to 0.1
COc1cc(-c2ccc(COc3cccc([C@@H](CC(=O)O)C4CC4)c3F)cc2[C@@H]2CCCC2(C)C)c(F)cn1 (single isomer, unassigned) [Example 83.5]	0.1 to 1	0.01 to 0.1
COc1ccc(F)c(-c2ccc(COc3cccc(C(CC(=O)O)C4CC4)c3F)cc2C(C)C(C)(C)C)c1 (single isomer, unassigned) [Example 83.6]	0.1 to 1	< 0.01
COc1ccc(F)c(-c2ccc(COc3cccc(C(CC(=O)O)C4CC4)c3F)cc2C2CCCCC2(C)C)c1 (single isomer, unassigned) [Example 83.7]	0.1 to 1	< 0.01
COc1ccc(F)c(-c2ccc(COc3cccc(C(CC(=O)O)C4CC4)c3F)cc2C(OC)C(C)(C)C)c1 (single isomer, unassigned) [Example 83.8]	0.1 to 1	< 0.01
COc1ccc(F)c(-c2ccc(COc3cccc(C(CC(=O)O)C4CC4)c3F)cc2C(F)C(C)(C)C)c1 (single isomer, unassigned) [Example 83.9]	0.1 to 1	< 0.01
CCO[C@H](c1cc(COc2cccc([C@@H](CC(=O)O)C3CC3)c2F)ccc1-c1ccccc1F)C(C)(C)C (single isomer, unassigned) [Example 83.10]	0.1 to 1	0.01 to 0.1
COCCO[C@H](c1cc(COc2cccc([C@@H](CC(=O)O)C3CC3)c2F)ccc1-c1ccccc1F)C(C)(C)C (single isomer, unassigned) [Example 83.11]	0.1 to 1	0.01 to 0.1
CC1(C)CCC=C1c1cc(COc2cccc([C@@H](CC(=O)O)C3CC3)c2F)ccc1-c1cc(C(F)F)ccc1F (single isomer, unassigned) [Example 83.12, (3S)-3-Cyclopropyl-3-(3-(((5′-(difluoromethyl)-2-(5,5-dimethyl-1-cyclopenten-1-yl)-2′-fluoro-1,1′-biphenyl-4-yl)methyl)oxy)-2-fluorophenyl)propanoic acid or (3R)-3-cyclopropyl-3-(3-(((5′-(difluoromethyl)-2-(5,5-dimethyl-1-cyclopenten-1-yl)-2′-fluoro-1,1′-biphenyl-4-yl)methyl)oxy)-2-fluorophenyl)propanoic acid]	0.1 to 1	0.01 to 0.1
COc1ccc(F)c(-c2ccc(COc3cccc(C(CC(=O)O)C4CC4)c3F)cc2C2=CCCC2(C)C)c1 (single isomer, unassigned) [Example 83.14, (3S)-3-Cyclopropyl-3-(3-(((2-(5,5-dimethyl-1-cyclopenten-1-yl)-2′-fluoro-5′-(methyloxy)-1,1′-biphenyl-4-yl)methyl)oxy)-2-fluorophenyl)propanoic acid or (3R)-3-cyclopropyl-3-(3-(((2-(5,5-dimethyl-1-cyclopenten-1-yl)-2′-fluoro-5′-(methyloxy)-1,1′-biphenyl-4-yl)methyl)oxy)-2-fluorophenyl)propanoic acid]	0.1 to 1	< 0.01
COc1ccc(F)c(-c2ccc(COc3cccc(C(CC(=O)O)C4CC4)c3F)cc2CC(C)(C)C)c1 (single isomer, unassigned) [Example 83.15, (3S)-3-Cyclopropyl-3-(3-(((2-(2,2-dimethylpropyl)-2′-fluoro-5′-(methyloxy)-1,1′-biphenyl-4-yl)methyl)oxy)-2-fluorophenyl)propanoic acid or (3R)-3-cyclopropyl-3-(3-(((2-(2,2-dimethylpropyl)-2′-fluoro-5′-(methyloxy)-1,1′-biphenyl-4-yl)methyl)oxy)-2-fluorophenyl)propanoic acid]	0.1 to 1	< 0.01

More lines, now with the values ahead:

EC50 (GPR40 [1]) [µM]	EC50 (GPR40 [2]) [µM]	SMILES
0.1 to 1	0.01 to 0.1	CC[C@H](CC(=O)O)c1cccc(OCc2ccc(-c3cccc(OC)c3)c(C3CCCCCC3)c2)c1 (single isomer, unassigned) [Example 78.8, (3R)-3-(3-(((2-Cycloheptyl-3′-(methyloxy)-1,1′-biphenyl-4-yl)methyl)oxy)phenyl)pentanoic acid or (3S)-3-(3-(((2-cycloheptyl-3′-(methyloxy)-1,1′-biphenyl-4-yl)methyl)oxy)phenyl)pentanoic acid]
0.1 to 1	0.01 to 0.1	CC[C@H](CC(=O)O)c1cccc(OCc2ccc(-c3cc(Cl)ccc3F)c(C3=CCCC3(C)C)c2)c1 (single isomer, unassigned) [Example 78.9, (3R)-3-(3-(((5′-Chloro-2-(5,5-dimethyl-cyclopenten-1-yl)-2′-fluoro-1,1′-biphenyl-4-yl)methyl)oxy)phenyl)pentanoic acid or (3S)-3-(3-(((5′-chloro-2-(5,5-dimethyl-1-cyclopenten-1-yl)-2′-fluoro-1,1′-biphenyl-4-yl)methyl)oxy)phenyl)pentanoic acid]
0.1 to 1	< 0.01	CCC(CC(=O)O)c1cccc(OCc2cc(C3CCCC3(C)C)c(-c3cc(OC)ccc3F)cc2F)c1 (single isomer, unassigned) [Example 78.10]
0.01 to 0.1	< 0.01	CCC(CC(=O)O)c1cccc(OCc2ccc(-c3cc(OC)ccc3F)c(C3CCCCC3(C)C)c2)c1 (single isomer, unassigned) [Example 78.11]
0.01 to 0.1	< 0.01	CCC(CC(=O)O)c1cccc(OCc2ccc(-c3cc(OC)ccc3F)c(C(OC)C(C)(C)CC)c2)c1 (single isomer, unassigned) [Example 78.14]
0.1 to 1	0.01 to 0.1	COc1ccc(F)c(-c2ccc(COc3cccc(C(CC(=O)O)C4CCC4)c3)cc2C2CCCC2(C)C)c1 (single isomer, unassigned) [Example 79.3]
0.1 to 1	0.01 to 0.1	COc1cccc(-c2ccc(COc3cccc(C(CC(=O)O)C4CCC4)c3)cc2C2CCCC2(C)C)c1 (single isomer, unassigned) [Example 79.6]
0.1 to 1	0.01 to 0.1	COc1ccc(F)c(-c2ccc(COc3cccc(C(CC(=O)O)C4CCC4)c3)cc2C2CCCCCC2)c1 (single isomer, unassigned) [Example 79.7, (3S)-3-(3-(((2-Cycloheptyl-2′-fluoro-5′-(methyloxy)-1,1′-biphenyl-4-yl)methyl)oxy)phenyl)-3-cyclobutylpropanoic acid or (3R)-3-(3-(((2-cycloheptyl-2′-fluoro-5′-(methyloxy)-1,1′-biphenyl-4-yl)methyl)oxy)phenyl)-3-cyclobutylpropanoic acid]
0.1 to 1	0.01 to 0.1	COc1cccc(-c2ccc(COc3cccc(C(CC(=O)O)C4CCC4)c3)cc2C2CCCCCC2)c1 (single isomer, unassigned) [Example 79.8, (3S)-3-(3-(((2-Cycloheptyl-3′-(methyloxy)-1,1′-biphenyl-4-yl)methyl)oxy)phenyl)-3-cyclobutylpropanoic acid or (3R)-3-(3-(((2-cycloheptyl-3′-(methyloxy)-1,1′-biphenyl-4-yl)methyl)oxy)phenyl)-3-cyclobutylpropanoic acid]
0.1 to 1	< 0.01	CCCC(CC(=O)O)c1cccc(OCc2ccc(-c3cccc(OC)c3)c(C3CCCC3(C)C)c2)c1 (single isomer, unassigned) [Example 80.6]
0.01 to 0.1	< 0.01	COc1ccc(F)c(-c2cc(F)c(COc3cccc([C@@H](CC(=O)O)C4CC4)c3F)cc2[C@H]2CCCC2(C)C)c1 (single isomer, unassigned) [Example 83.2]
0.01 to 0.1	< 0.01	COc1cc(-c2ccc(COc3cccc([C@@H](CC(=O)O)C4CC4)c3F)cc2[C@H]2CCCC2(C)C)c(F)cn1 (single isomer, unassigned) [Example 83.4]
